Test results reported in patent US8134001B2, “Spiroindolinone derivatives” (Hoffmann-La Roche Inc., priority 2007, dated 2012).

target: interaction between p53 and MDM2 proteins (recombinant GST-tagged MDM2 / biotinylated p53 peptide) (Homo sapiens, UniProt Q00987); test: HTRF assay of inhibition of the p53-MDM2 interaction; type: binding; conditions: 0.2% BSA
Description: The ability of the compounds to inhibit the interaction between p53 and MDM2 proteins was measured by an HTRF (homogeneous time-resolved fluorescence) assay in which recombinant GST-tagged MDM2 binds to a peptide that resembles the MDM2-interacting region of p53 (Lane et al.). Binding of GST-MDM2 protein and p53-peptide (biotinylated on its N-terminal end) is registered by the FRET (fluorescence resonance energy transfer) between Europium (Eu)-labeled anti-GST antibody and streptavidin-conjugated Allophycocyanin (APC).
Test is performed in black flat-bottom 384-well plates (Costar) in a total volume of 40 uL containing: 90 nM biotinylate peptide, 160 ng/ml GST-MDM2, 20 nM streptavidin-APC (PerkinElmerWallac), 2 nM Eu-labeled anti-GST-antibody (PerkinElmerWallac), 0.2% bovine serum albumin (BSA), 1 mM dithiothreitol (DTT) and 20 mM Tris-borate saline (TBS) buffer as follows: Add 10 uL of GST-MDM2 (640 ng/ml working solution) in reaction buffer to each well. Add 10 uL diluted compounds (1:5 dilution in reaction buffer) to each well, mix by shaking. Add 20 uL biotinylated p53 peptide (180 nM working solution) in reaction buffer to each well and mix on shaker. Incubate at 37° C. for 1 h. Add 20 uL streptavidin-APC and Eu-anti-GST antibody mixture (6 nM Eu-anti-GST and 60 nM streptavidin-APC working solution) in TBS buffer with 0.2% BSA, shake at room temperature for 30 minutes and read using a TRF-capable plate reader at 665 and 615 nm (Victor 5, Perkin ElmerWallac). If not specified, the reagents were purchased from Sigma Chemical Co.

interaction between p53 and MDM2 proteins (recombinant GST-tagged MDM2 / biotinylated p53 peptide), sequence (Q00987 whole entry): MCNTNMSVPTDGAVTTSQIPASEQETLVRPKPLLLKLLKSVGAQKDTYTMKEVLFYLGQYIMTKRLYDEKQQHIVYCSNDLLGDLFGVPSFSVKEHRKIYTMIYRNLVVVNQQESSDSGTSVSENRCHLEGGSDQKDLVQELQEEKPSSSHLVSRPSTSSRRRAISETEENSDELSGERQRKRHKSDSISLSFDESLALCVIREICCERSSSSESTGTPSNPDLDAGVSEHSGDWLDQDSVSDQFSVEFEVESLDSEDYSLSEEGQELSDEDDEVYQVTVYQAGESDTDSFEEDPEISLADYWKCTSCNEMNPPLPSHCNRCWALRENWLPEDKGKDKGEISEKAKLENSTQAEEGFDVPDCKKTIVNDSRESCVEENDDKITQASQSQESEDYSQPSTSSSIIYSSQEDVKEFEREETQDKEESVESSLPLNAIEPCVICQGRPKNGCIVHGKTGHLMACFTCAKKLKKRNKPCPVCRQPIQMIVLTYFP

In order of rising IC50:
1. CC(=O)N1CCC(Oc2ccc(I)cc2[C@H]2NC(=O)[C@@H](c3cccc(Cl)c3)C[C@]23C(=O)Nc2cc(Cl)ccc23)CC1 [Example 5c, chiral(2′R,3R,4′S)-2′-[2-(1-acetyl-4-piperidinyloxy)-5-iodo-phenyl]-6-chloro-4′-(3-chlorophenyl)spiro[3H-indole-3,3′-piperidine]-2,6′(1H)-dione]  0.034 µM
2. C#Cc1ccc(OC2CCN(C(=O)N(CC)CC)CC2)c([C@H]2NC(=O)C[C@@H](c3cccc(Cl)c3)[C@]23C(=O)Nc2cc(Cl)ccc23)c1 (racemic) [Example 22b, racemic(2′R,3R,4′S)-6-chloro-4′-(3-chlorophenyl)-2′-[2-(1-diethylcarbamoyl-4-piperidinyloxy)-5-ethynyl-phenyl]spiro[3H-indole-3,3′-piperidine]-2,6′(1H)-dione]  0.042 µM
3. CC(=O)Nc1ccc(Oc2ccc(Cl)cc2[C@H]2NC(=O)C[C@@H](c3cccc(Cl)c3)[C@]23C(=O)Nc2cc(Cl)ccc23)cc1 (racemic) [Example 87, racemic(2′R, 3R, 4′S)-2′-[2-(4-acetylamino-phenoxy)-5-chloro-phenyl]-6-chloro-4′-(3-chlorophenyl)spiro[3H-indole-3,3′-piperidine]-2,6′(1H)-dione]  0.048 µM
4. O=C1C[C@@H](c2cccc(Cl)c2)[C@]2(C(=O)Nc3cc(Cl)ccc32)[C@@H](c2cc(Br)ccc2Oc2ccc(C(=O)NCCN3CCCC3)cc2)N1 (racemic) [Example 56, racemic(2′R, 3R, 4′S)-2′-{5-bromo-2-[4-(2-pyrrolidin-1-yl-ethylcarbamoyl)-phenoxy]-phenyl}-6-chloro-4′-(3-chlorophenyl)spiro[3H-indole-3,3′-piperidine]-2,6′(1H)-dione]  0.131 µM
5. C#Cc1ccc(OCC2CCN(C(=O)OC(C)(C)C)CC2)c([C@H]2NC(=O)C[C@@H](c3cccc(Cl)c3)[C@]23C(=O)Nc2cc(Cl)ccc23)c1 (racemic) [Example 2, racemic(2′R,3R,4′S)-2′-[2-(1-(tert-butoxycarbonyl)-4-piperidinylmethoxy)-5-ethynyl-phenyl]-6-chloro-4′-(3-chlorophenyl)spiro[3H-indole-3,3′-piperidine]-2,6′(1H)-dione]  0.205 µM
